Reference: US20240300946A1, “EGFR INHIBITORS” (Blueprint Medicines Corporation, priority 2021, published 2024)
Where two headings read alike, the source gives them in different places.

What was measured:
[1] = system: phosphorylation of EGFR in NCI-H1975 cell line that harbors the EGFR L858R T790 M mutations; assay: NCI-H1975 pEGFR AlphaLISA assay; assay type: cell-based; details: p-EGFR (Tyr1068), 4-5 hours incubation, read-out: Ext pEGFR H1975 GMean IC50 (nM) Protocol: @ Pharmaron AlphaLISA (Num)
Protocol: Inhibitory effects of the compounds of the disclosure were evaluated in cellular assays that measure level of intracellular phosphorylation of EGFR in NCI-H1975 cell line that harbors the EGFR L858R T790 M mutations (ATCC, CRL-5908) using AlphaLISA sureFire ultra p-EGFR (Tyr1068) assay kit (PerkinElmer, ALSU-PEGFR-A50K). The NCI-H1975 cells were seeded at 12.5K/well in 22 μL into 384 well opti plate (PerkinElmer, 6007299) and adhering overnight at 37° C./5% CO2. On the next day, the test compounds and DMSO control were added into H1975 cell plate followed by incubation at 37° C./5% CO2 for 4-5 hours. The cells were then spin down in the 384-well plate and lysed with 10 μL of 1× AlphaLISA lysis buffer followed by shaking at 600 rpm for 10 minutes at room temperature. After that, 5 μL of an acceptor bead mix was added to each well followed by incubation at room temperature for 1.5-2 h in dark. Then 5 μL of a donor bead mix was added to each well followed by overnight incubation at room temperature in dark. On the next day, the plate was read at a compatible plate reader to obtain pEGFR signal. Percent of pEGFR inhibition was plotted against log concentration of compounds to generate IC50 values.

[2] = target: T1, EGFR (L858R T790 M C797S) (Homo sapiens, UniProt P00533, C797S/L858R/T790M); assay: Biochemical EGFR inhibition assay (Caliper mobility shift), LRTMCS mutant at 1 mM ATP; details: read-out: LRTMCS (PH) IC50 (nM) @ 1 mM ATP (Num)
T1 construct: purchased SignalChem E10-122VG
T1 sequence (P00533 25-1210 T790M/C797S/L858R): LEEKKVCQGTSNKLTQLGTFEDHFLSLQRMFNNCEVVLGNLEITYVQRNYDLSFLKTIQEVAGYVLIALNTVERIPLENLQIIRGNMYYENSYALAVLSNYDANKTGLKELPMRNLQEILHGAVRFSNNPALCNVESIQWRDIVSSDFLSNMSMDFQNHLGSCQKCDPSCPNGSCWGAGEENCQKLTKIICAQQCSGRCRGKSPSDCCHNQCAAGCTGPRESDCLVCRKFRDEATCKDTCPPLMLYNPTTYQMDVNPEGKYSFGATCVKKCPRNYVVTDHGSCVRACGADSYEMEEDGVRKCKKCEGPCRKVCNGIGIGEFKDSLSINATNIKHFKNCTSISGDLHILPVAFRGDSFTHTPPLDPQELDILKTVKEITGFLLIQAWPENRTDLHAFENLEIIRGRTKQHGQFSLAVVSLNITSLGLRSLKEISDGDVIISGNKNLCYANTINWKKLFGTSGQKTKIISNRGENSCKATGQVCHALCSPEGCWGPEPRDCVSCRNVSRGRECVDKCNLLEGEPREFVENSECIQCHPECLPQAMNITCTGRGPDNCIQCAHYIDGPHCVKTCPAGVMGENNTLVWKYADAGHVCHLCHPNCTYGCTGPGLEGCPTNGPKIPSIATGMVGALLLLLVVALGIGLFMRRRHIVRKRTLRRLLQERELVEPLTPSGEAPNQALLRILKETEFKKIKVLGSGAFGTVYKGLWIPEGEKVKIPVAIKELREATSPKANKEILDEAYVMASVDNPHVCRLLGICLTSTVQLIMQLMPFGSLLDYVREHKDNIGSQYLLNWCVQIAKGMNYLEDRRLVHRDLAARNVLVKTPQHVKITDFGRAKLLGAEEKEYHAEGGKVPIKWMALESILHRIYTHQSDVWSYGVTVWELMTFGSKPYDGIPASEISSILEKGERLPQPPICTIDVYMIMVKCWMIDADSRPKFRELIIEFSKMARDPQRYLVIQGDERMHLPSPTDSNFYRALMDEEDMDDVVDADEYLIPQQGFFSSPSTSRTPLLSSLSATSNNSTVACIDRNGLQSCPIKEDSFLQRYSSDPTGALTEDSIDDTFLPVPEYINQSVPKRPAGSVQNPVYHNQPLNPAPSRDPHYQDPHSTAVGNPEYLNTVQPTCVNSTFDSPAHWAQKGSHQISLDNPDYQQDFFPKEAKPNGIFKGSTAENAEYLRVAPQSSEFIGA
Protocol: Inhibitory effects of the compounds of the disclosure were measured in biochemical assays that measure the phosphorylation activity of EGFR enzyme phosphorylates 2.5 micromolar 5-FAM-[…]-CONH2 peptide substrate (FL-Peptide 22, PerkinElmer, 760366) in the presence of adenosine-5′-triphosphate (ATP) and varying concentrations of the test compound in 100 mM 2-[4-(2-hydroxyethyl)piperazin-1-yl]ethanesulfonic acid (HEPES), pH 7.5, 10 mM MgCl2, 0.015% Brij-35, 1 mM dithiothreitol (DTT), 1.0% dimethylsulfoxide (DMSO). Assays were performed at 1.0 mM ATP or at ATP Km of the EGFR enzymes. Reactions proceeded until between 10% to 20% total peptides were phosphorylated at room temperature (25° C.) and were terminated with 35 mM 2,2′,2″,2′″-(ethane-1,2-diyldinitrilo)tetraacetic acid (EDTA). Product was detected using the Caliper mobility shift detection method where the phosphorylated peptide (product) and substrate were electrophoretically separated and measured. Percent activity was plotted against log concentration of compound and points to generate an apparent IC50. The following enzyme forms of EGFR were examples that were used in these assays: • EGFR WT (SignalChem, E10-112G) • EGFR (L858R T790 M C797S) (SignalChem, E10-122VG) • EGFR (d746-750) T790 M C797S (SignalChem, E10-122UG) • EGFR L858R (SignalChem, E10-122BG) • EGFR (d746-750) (SignalChem, E10-122JG)

[3] = Homo sapiens, NCI-H1975, NCI-H1975 cells

Row | IC50 [1, 3] | IC50 [2] | IC50 ([1]; NCI-H1975 cells) | SMILES
1 | > 50 nM | > 100 nM |  | CC(C)c1ccc(N2CC(CS(C)(=O)=O)C2)c2cnc(Nc3ccnc([C@H]4C[C@@H]4C(F)F)n3)cc12 (single isomer, unassigned) [Example 16, N-(2-((1S,2S)-2-(difluoromethyl)cyclopropyl)pyrimidin-4-yl)-5-isopropyl-8-(3-((methylsulfonyl)methyl)azetidin-1-yl)isoquinolin-3-amine or N-(2-((1R,2R)-2-(difluoromethyl)cyclopropyl)pyrimidin-4-yl)-5-isopropyl-8-(3-((methylsulfonyl)methyl)azetidin-1-yl)isoquinolin-3-amine]
2 |  | > 100 nM | > 50 nM | CC(C)c1ccc(N2CC(CS(C)(=O)=O)C2)c2cnc(Nc3ccnc([C@H]4C[C@@H]4C(F)F)n3)cc12 (single isomer, unassigned) [Example 17, N-(2-((1S,2S)-2-(difluoromethyl)cyclopropyl)pyrimidin-4-yl)-5-isopropyl-8-(3-((methylsulfonyl)methyl)azetidin-1-yl)isoquinolin-3-amine or N-(2-((1R,2R)-2-(difluoromethyl)cyclopropyl)pyrimidin-4-yl)-5-isopropyl-8-(3-((methylsulfonyl)methyl)azetidin-1-yl)isoquinolin-3-amine]
3 | > 50 nM | ≤ 15 nM |  | C[C@H](CO)c1ccc(N2CC(CS(C)(=O)=O)C2)c2cnc(Nc3ccnc(-c4cnn(C)c4)n3)cc12 (single isomer, unassigned) [Example 18, (S)-2-(3-((2-(1-methyl-1H-pyrazol-4-yl)pyrimidin-4-yl)amino)-8-(3-((methylsulfonyl)methyl)azetidin-1-yl)isoquinolin-5-yl)propan-1-ol or (R)-2-(3-((2-(1-methyl-1H-pyrazol-4-yl)pyrimidin-4-yl)amino)-8-(3-((methylsulfonyl)methyl)azetidin-1-yl)isoquinolin-5-yl)propan-1-ol]
4 |  | ≤ 15 nM | > 50 nM | C[C@H](CO)c1ccc(N2CC(CS(C)(=O)=O)C2)c2cnc(Nc3ccnc(-c4cnn(C)c4)n3)cc12 (single isomer, unassigned) [Example 19, (S)-2-(3-((2-(1-methyl-1H-pyrazol-4-yl)pyrimidin-4-yl)amino)-8-(3-((methylsulfonyl)methyl)azetidin-1-yl)isoquinolin-5-yl)propan-1-ol or (R)-2-(3-((2-(1-methyl-1H-pyrazol-4-yl)pyrimidin-4-yl)amino)-8-(3-((methylsulfonyl)methyl)azetidin-1-yl)isoquinolin-5-yl)propan-1-ol]
5 |  | ≤ 15 nM | < 10 nM | Cc1ncc(-c2nccc(Nc3cc4c(C(C)C)ccc(N5C[C@H](CS(C)(=O)=O)[C@H]5C)c4cn3)n2)s1 (single isomer, unassigned) [Example 20, 5-isopropyl-8-(2R,3S)-2-methyl-3-((methylsulfonyl)methyl)azetidin-1-yl)-N-(2-(2-methylthiazol-5-yl)pyrimidin-4-yl)isoquinolin-3-amine or 5-isopropyl-8-((2S,3R)-2-methyl-3-((methylsulfonyl)methyl)azetidin-1-yl)-N-(2-(2-methylthiazol-5-yl)pyrimidin-4-yl)isoquinolin-3-amine]
6 |  | > 100 nM | > 50 nM | Cc1ncc(-c2nccc(Nc3cc4c(C(C)C)ccc(N5C[C@H](CS(C)(=O)=O)[C@H]5C)c4cn3)n2)s1 (single isomer, unassigned) [Example 21, 5-isopropyl-8-((2S,3S)-2-methyl-3-((methylsulfonyl)methyl)azetidin-1-yl)-N-(2-(2-methylthiazol-5-yl)pyrimidin-4-yl)isoquinolin-3-amine or 5-isopropyl-8-((2S,3R)-2-menthyl-3-((methylsulfonyl)methyl)azetidin-1-yl)-N-(2-(2-methylthiazol-5-yl)pyrimidin-4-yl)isoquinolin-3-amine]
7 | < 10 nM | ≤ 15 nM |  | CC(C)c1ccc(N2C[C@H](CS(C)(=O)=O)[C@H]2C)c2cnc(Nc3ccnc(-c4cccnc4)n3)cc12 (single isomer, unassigned) [Example 22, 5-isopropyl-8-((2R,3S)-2-methyl-3-((methylsulfonyl)methyl)azetidin-1-yl)-N-(2-(pyridin-3-yl)pyrimidin-4-yl)isoquinolin-3-amine or 5-isopropyl-8-((2S,3R)-2 methyl-3-((methylsulfonyl)methyl)azetidin-1-yl)-N-(2-(pyridin-3-yl)pyridin-4-yl) isoquinolin-3-amine]
8 | 10 to 20 nM | ≤ 15 nM |  | CC(C)c1ccc(N2C[C@H](CS(C)(=O)=O)[C@H]2C)c2cnc(Nc3ccnc(-c4cnn(C)c4)n3)cc12 (single isomer, unassigned) [Example 23, 5-isopropyl-N-(2-(1-methyl-1H-pyrazol-4-yl)pyrmidin-4-yl)-8-((2S,3S)-2-methyl-3-((methylsulfonyl)methy)azetidin-1-yl)isoquinolin-3-amine or 5-isopropyl-N-(2-(1-methyl-1H-pyrazol-4-yl)pyrimidin-4-yl)-8-((2S,3R)-2-methyl-3-((methylsulfonyl)methyl)azetidin-1-yl)isoquinolin-3-amine]
9 | > 50 nM | 30 to 100 nM |  | CC(C)c1cnc(N2CC(CS(C)(=O)=O)C2)c2cnc(Nc3ccnc([C@]4(C)C[C@@H](O)C4)n3)cc12 (single isomer, unassigned) [Example 24, (1r,3r)-3-(4-((5-isopropyl-8-(3-((methylsulfonyl)methyl)azetidin-1-yl)-2,7-naphthyridin-3-yl)amino)pyrimidin-2-yl)-3-methylcyclobutan-1-ol or (1s,3s)-3-(4-((5-isopropyl-8-(3-((methylsulfonyl)methyl)azetidin-1-yl)-2,7-naphthyridin-3-yl)amino)pyrimidin-2-yl)-3-methylcyclobutan-1-ol]
10 |  | > 100 nM | > 50 nM | CC(C)c1cnc(N2CC(CS(C)(=O)=O)C2)c2cnc(Nc3ccnc([C@]4(C)C[C@@H](O)C4)n3)cc12 (single isomer, unassigned) [Example 25, (1r,3r)-3-(4-((5-isopropyl-8-(3-((methylsulfonyl)methyl)azetidin-1-yl)-2,7-naphthyridin-3-yl)amino)pyrimidin-2-yl)-3-methylcyclobutan-1-ol or (1s,3s)-3-(4-((5-isopropyl-8-(3-((methylsulfonyl)methyl)azetidin-1-yl)-2,7-naphthyridin-3-yl)amino)pyrimidin-2-yl)-3-methylcyclobutan-1-ol]
11 | 10 to 20 nM | ≤ 15 nM |  | Cc1ncc(-c2nccc(Nc3cc4c(C(C)C)cnc(N5CC(CS(C)(=O)=O)C5)c4cn3)n2)s1 [Example 1, 5-isopropyl-8-(3-((methylsulfonyl)methyl)azetidin-1-yl)-N-(2-(2-methylthiazol-5-yl)pyrimidin-4-yl)-2,7-naphthyridin-3-amine]
12 | 10 to 20 nM | ≤ 15 nM |  | CC(C)c1cnc(N2CC(CS(C)(=O)=O)C2)c2cnc(Nc3ccnc(-c4cnn(C)c4)n3)cc12 [Example 2, 5-isopropyl-N-(2-(1-methyl-1H-pyrazol-4-yl)pyrimidin-4-yl)-8-(3-((methylsulfonyl)methyl)azetidin-1-yl)-2,7-naphthyridin-3-amine]
13 | > 50 nM | > 100 nM |  | CC(C)c1cnc(N2CC(CS(C)(=O)=O)C2)c2cnc(Nc3ccnc(C4(C)CC(=O)C4)n3)cc12 [Example 3, 3-(4-((5-isopropyl-8-(3-((methylsulfonyl)methyl)azetidin-1-yl)-2,7-naphthyridin-3-yl)amino)pyrimidin-2-yl)-3-methylcyclobutan-1-one]
